Results published in patent US8530493B2, “Indolopyridines as Eg5 kinesin modulators” (4SC AG, priority 2006, dated 2013).

What was measured:
[1] = system: RKO p27 or p21 induced (arrested) colon adenocarcinoma cells; experiment: Alamar Blue cell viability assay, RKO p27 or p21 induced (arrested); type: cell-based; conditions: Homo sapiens, RKOp27, Table B2, cells arrested by Ponasterone A, 72 hours, read-out: −log EC50 RKO p27 or p21 induced (arrested) (converted)
Summary of the method: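 RKOp21 or RKOp27 subclones in DMEM/10% FCS with 10 μM Ponasterone A to induce p21/p27 arrest, seeded 24 h before compound; triplicate 72 h exposure at 37 °C. Alamar Blue fluorescence (544/590 nm) as % of untreated (1% DMSO) cells; EC50 from dose-response curves, reported as −log EC50 (mol/l).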

[2] = system: RKO p27 or p21 uninduced (proliferating) colon adenocarcinoma cells; experiment: Alamar Blue cell viability assay, RKO p27 or p21 uninduced (proliferating); type: cell-based; conditions: Homo sapiens, RKOp27, 72 h, Table B2, anti-proliferative/cytotoxic activity, read-out: −log EC50 RKO p27 or p21 uninduced (proliferating) (converted)
Summary of the method: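 RKO p21 or p27 subclones grown without Ponasterone A, i.e. proliferating, exposed 24 h after seeding to semi-log compound dilutions in DMEM/10% FCS (1% DMSO controls) for 72 h at 37° C. Alamar Blue fluorescence (544/590 nm) read relative to untreated cells; EC50 from dose-response curves, given as −log EC50 (mol/l).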

Row | Structure (SMILES) | EC50 [1] | EC50 [2]
1 | CC(C)CNCCCN1C(=O)N2[C@H](c3cccc(O)c3)c3[nH]c4ccc(Cl)cc4c3C[C@@]2(C)C1=O (racemic) [Example 135, (3aSR,10RS)-6-Chloro-10-(3-hydroxy-phenyl)-2-(3-isobutylamino-propyl)-3a-methyl-3a,4,9,10-tetrahydro-2,9,10a-triaza-cyclopenta[b]fluorene-1,3-dione] | ≥ 3160 nM | ≤ 39.8 nM
2 | C[C@@]12Cc3c([nH]c4ccc(Cl)cc34)[C@@H](c3cccc(O)c3)N1C(=O)N(CCN1CC=CC1)C2=O (racemic) [Example 109, (3aSR,10RS)-6-Chloro-2-[2-(2,5-dihydro-pyrrol-1-yl)-ethyl]-10-(3-hydroxy-phenyl)-3a-methyl-3a,4,9,10-tetrahydro-2,9,10a-triaza-cyclopenta[b]fluorene-1,3-dione] | ≥ 316 nM | ≤ 39.8 nM
3 | COc1ccc2[nH]c3c(c2c1)C[C@@]1(C)C(=O)N(CCCNCC(C)C)C(=O)N1[C@@H]3c1cccc(O)c1 (racemic) [Example 92, (3aSR,10RS)-10-(3-Hydroxy-phenyl)-2-(3-isobutylamino-propyl)-6-methoxy-3a-methyl-3a,4,9,10-tetrahydro-2,9,10a-triaza-cyclopenta[b]fluorene-1,3-dione] | ≥ 3160 nM | ≤ 39.8 nM
4 | CNCCCN1C(=O)N2[C@H](c3cccc(O)c3)c3[nH]c4ccc(Cl)cc4c3C[C@@]2(C)C1=O (racemic) [Example 130, (3aSR,10RS)-6-Chloro-10-(3-hydroxy-phenyl)-3a-methyl-2-(3-methylamino-propyl)-3a,4,9,10-tetrahydro-2,9,10a-triaza-cyclopenta[b]fluorene-1,3-dione] | ≥ 316 nM | ≤ 39.8 nM
5 | C[C@@]12Cc3c([nH]c4ccc(Cl)cc34)[C@@H](c3cccc(O)c3)N1C(=O)N(CCN1CCC(F)(F)C1)C2=O (racemic) [Example 129, (3aSR,10RS)-6-Chloro-2-[2-(3,3-difluoro-pyrrolidin-1-yl)-ethyl]-10-(3-hydroxy-phenyl)-3a-methyl-3a,4,9,10-tetrahydro-2,9,10a-triaza-cyclopenta[b]fluorene-1,3-dione] | ≥ 316 nM | 39.8 to 251 nM
6 | CC(=O)N1CCN(CCN2C(=O)N3[C@H](c4cccc(O)c4)c4[nH]c5ccc(Cl)cc5c4C[C@@]3(C)C2=O)CC1 (racemic) [Example 114, (3aSR,10RS)-2-[2-(4-Acetyl-piperazin-1-yl)-ethyl]-6-chloro-10-(3-hydroxy-phenyl)-3a-methyl-3a,4,9,10-tetrahydro-2,9,10a-triaza-cyclopenta[b]fluorene-1,3-dione] | ≥ 316 nM | ≤ 39.8 nM
7 | C=CCN(C)CCCN1C(=O)N2[C@H](c3cccc(O)c3)c3[nH]c4ccc(OC)cc4c3C[C@@]2(C)C1=O (racemic) [Example 88, (3aSR,10RS)-2-[3-(Allyl-methyl-amino)-propyl]-10-(3-hydroxy-phenyl)-6-methoxy-3a-methyl-3a,4,9,10-tetrahydro-2,9,10a-triaza-cyclopenta[b]fluorene-1,3-dione] | ≥ 3160 nM | ≤ 39.8 nM
8 | COc1ccc2[nH]c3c(c2c1)C[C@@]1(C)C(=O)N(CCN2CC=CC2)C(=O)N1[C@@H]3c1cccc(O)c1 (racemic) [Example 119, (3aSR,10RS)-2-[2-(2,5-Dihydro-pyrrol-1-yl)-ethyl]-10-(3-hydroxy-phenyl)-6-methoxy-3a-methyl-3a,4,9,10-tetrahydro-2,9,10a-triaza-cyclopenta[b]fluorene-1,3-dione] | ≥ 316 nM | ≤ 39.8 nM
9 | C=CCNCCCN1C(=O)N2[C@H](c3cccc(O)c3)c3[nH]c4ccc(OC)cc4c3C[C@@]2(C)C1=O (racemic) [Example 146, (3aSR,10RS)-2-(3-Allylamino-propyl)-10-(3-hydroxy-phenyl)-6-methoxy-3a-methyl-3a,4,9,10-tetrahydro-2,9,10a-triaza-cyclopenta[b]fluorene-1,3-dione] | ≥ 316 nM | ≤ 39.8 nM
10 | C[C@@]12Cc3c([nH]c4ccc(Cl)cc34)[C@@H](c3cccc(O)c3)N1C(=O)N(CCCNC1CCC1)C2=O (racemic) [Example 138, (3aSR,10RS)-6-Chloro-2-(3-cyclobutylamino-propyl)-10-(3-hydroxy-phenyl)-3a-methyl-3a,4,9,10-tetrahydro-2,9,10a-triaza-cyclopenta[b]fluorene-1,3-dione] | ≥ 3160 nM | ≤ 39.8 nM
11 | CC(C)(C)NCCN1C(=O)N2[C@H](c3cccc(O)c3)c3[nH]c4ccc(Cl)cc4c3C[C@@]2(C)C1=O (racemic) [Example 97, (3aSR,10RS)-2-(2-tert-Butylamino-ethyl)-6-chloro-10-(3-hydroxy-phenyl)-3a-methyl-3a,4,9,10-tetrahydro-2,9,10a-triaza-cyclopenta[b]fluorene-1,3-dione] | ≥ 3160 nM | ≤ 39.8 nM
12 | COc1ccc2[nH]c3c(c2c1)C[C@@]1(C)C(=O)N(CCCNC2CCC2)C(=O)N1[C@@H]3c1cccc(O)c1 (racemic) [Example 86, (3aSR,10RS)-2-(3-Cyclobutylamino-propyl)-10-(3-hydroxy-phenyl)-6-methoxy-3a-methyl-3a,4,9,10-tetrahydro-2,9,10a-triaza-cyclopenta[b]fluorene-1,3-dione] | ≥ 3160 nM | ≤ 39.8 nM
13 | C[C@@]12Cc3c([nH]c4ccc(Cl)cc34)[C@@H](c3cccc(O)c3)N1C(=O)N(CCN1CCOCC1)C2=O (racemic) [Example 120, (3aSR,10RS)-6-Chloro-10-(3-hydroxy-phenyl)-3a-methyl-2-(2-morpholin-4-ylethyl)-3a,4,9,10-tetrahydro-2,9,10a-triaza-cyclopenta[b]fluorene-1,3-dione] | ≥ 316 nM | 39.8 to 251 nM
14 | COc1ccc2[nH]c3c(c2c1)C[C@@]1(C)C(=O)N(CCCNC2CC2)C(=O)N1[C@@H]3c1cccc(O)c1 (racemic) [Example 93, (3aSR,10RS)-2-(3-Cyclopropylamino-propyl)-10-(3-hydroxy-phenyl)-6-methoxy-3a-methyl-3a,4,9,10-tetrahydro-2,9,10a-triaza-cyclopenta[b]fluorene-1,3-dione] | ≥ 3160 nM | ≤ 39.8 nM
15 | C[C@@]12Cc3c([nH]c4ccc(Cl)cc34)[C@@H](c3cccc(O)c3)N1C(=O)N(CCNC1CC1)C2=O (racemic) [Example 102, (3aSR,10RS)-6-Chloro-2-(2-cyclopropylamino-ethyl)-10-(3-hydroxy-phenyl)-3a-methyl-3a,4,9,10-tetrahydro-2,9,10a-triaza-cyclopenta[b]fluorene-1,3-dione] | ≥ 3160 nM | ≤ 39.8 nM
16 | CC(C)CNCCN1C(=O)N2[C@H](c3cccc(O)c3)c3[nH]c4ccc(Cl)cc4c3C[C@@]2(C)C1=O (racemic) [Example 99, (3aSR,10RS)-6-Chloro-10-(3-hydroxy-phenyl)-2-(2-isobutylamino-ethyl)-3a-methyl-3a,4,9,10-tetrahydro-2,9,10a-triaza-cyclopenta[b]fluorene-1,3-dione] | ≥ 3160 nM | ≤ 39.8 nM
17 | COc1ccc2[nH]c3c(c2c1)C[C@@]1(C)C(=O)N(CCCN2CCCCCC2)C(=O)N1[C@@H]3c1cccc(O)c1 (racemic) [Example 113] | ≥ 316 nM | ≤ 39.8 nM
18 | CCN(C)CCCN1C(=O)N2[C@H](c3cccc(O)c3)c3[nH]c4ccc(OC)cc4c3C[C@@]2(C)C1=O (racemic) [Example 77, (3aSR,10RS)-2-[3-(Ethyl-methyl-amino)-propyl]-10-(3-hydroxy-phenyl)-6-methoxy-3a-methyl-3a,4,9,10-tetrahydro-2,9,10a-triaza-cyclopenta[b]fluorene-1,3-dione] | ≥ 3160 nM | ≤ 39.8 nM
19 | COc1ccc2[nH]c3c(c2c1)C[C@@]1(C)C(=O)N(CCNCCO)C(=O)N1[C@@H]3c1cccc(O)c1 (racemic) [Example 82, (3aSR,10RS)-2-[2-(2-Hydroxy-ethylamino)-ethyl]-10-(3-hydroxy-phenyl)-6-methoxy-3a-methyl-3a,4,9,10-tetrahydro-2,9,10a-triaza-cyclopenta[b]fluorene-1,3-dione] | ≥ 3160 nM | ≤ 39.8 nM
20 | CCN(CC)CCCN1C(=O)N2[C@H](c3cccc(O)c3)c3[nH]c4ccc(Cl)cc4c3C[C@@]2(C)C1=O (racemic) [Example 137, (3aSR,10RS)-6-Chloro-2-(3-diethylamino-propyl)-10-(3-hydroxy-phenyl)-3a-methyl-3a,4,9,10-tetrahydro-2,9,10a-triaza-cyclopenta[b]fluorene-1,3-dione] | ≥ 3160 nM | ≤ 39.8 nM
21 | C=CCN(C)CCN1C(=O)N2[C@H](c3cccc(O)c3)c3[nH]c4ccc(OC)cc4c3C[C@@]2(C)C1=O (racemic) [Example 80, (3aSR,10RS)-2-[2-(Allyl-methyl-amino)-ethyl]-10-(3-hydroxy-phenyl)-6-methoxy-3a-methyl-3a,4,9,10-tetrahydro-2,9,10a-triaza-cyclopenta[b]fluorene-1,3-dione] | ≥ 3160 nM | ≤ 39.8 nM
22 | CC1CCN(CCN2C(=O)N3[C@H](c4cccc(O)c4)c4[nH]c5ccc(Cl)cc5c4C[C@@]3(C)C2=O)CC1 (racemic) [Example 98, (3aSR,10RS)-6-Chloro-10-(3-hydroxy-phenyl)-3a-methyl-2-[2-(4-methyl-piperidin-1-yl)-ethyl]-3a,4,9,10-tetrahydro-2,9,10a-triaza-cyclopenta[b]fluorene-1,3-dione] | ≥ 3160 nM | ≤ 39.8 nM
